Laboratory results: paper PMC7383220 (BioFactors (Oxford, England), 2018)
Like-named read-outs stand apart in the source and are kept apart here.

Tests used:
[1] = molecular target: T1, UGT1A1 (Homo sapiens, UniProt P22309); assay type: biochemical; details: for Effect on glucuronidation of BDMC by UGT1A1 enzyme: inhibitor 5 and 20 μM; for Effect of UGT1A1 inhibitors on rates of BDMC-O-glucuronidation: nilotinib 10 μM, protopanaxatriol 500 μM, glycyrrhetinic acid 20 μM
T1 sequence (P22309 26-533): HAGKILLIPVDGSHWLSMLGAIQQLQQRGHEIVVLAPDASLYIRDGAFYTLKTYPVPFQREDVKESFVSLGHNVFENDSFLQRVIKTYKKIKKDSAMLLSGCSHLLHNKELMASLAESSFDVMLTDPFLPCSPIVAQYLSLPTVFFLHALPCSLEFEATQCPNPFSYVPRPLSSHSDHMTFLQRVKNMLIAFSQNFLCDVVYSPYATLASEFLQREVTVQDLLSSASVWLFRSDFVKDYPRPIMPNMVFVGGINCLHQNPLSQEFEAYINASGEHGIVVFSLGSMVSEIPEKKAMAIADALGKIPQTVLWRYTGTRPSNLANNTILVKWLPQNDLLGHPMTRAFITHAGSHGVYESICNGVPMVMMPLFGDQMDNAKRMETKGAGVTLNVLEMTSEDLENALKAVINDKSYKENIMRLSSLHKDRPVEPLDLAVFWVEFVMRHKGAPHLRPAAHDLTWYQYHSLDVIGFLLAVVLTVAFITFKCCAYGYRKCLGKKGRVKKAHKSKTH

[2] = molecular target: T2, HeLa1A1 cell lysate (Homo sapiens, UniProt P22309); assay type: biochemical
T2 sequence (P22309 26-533): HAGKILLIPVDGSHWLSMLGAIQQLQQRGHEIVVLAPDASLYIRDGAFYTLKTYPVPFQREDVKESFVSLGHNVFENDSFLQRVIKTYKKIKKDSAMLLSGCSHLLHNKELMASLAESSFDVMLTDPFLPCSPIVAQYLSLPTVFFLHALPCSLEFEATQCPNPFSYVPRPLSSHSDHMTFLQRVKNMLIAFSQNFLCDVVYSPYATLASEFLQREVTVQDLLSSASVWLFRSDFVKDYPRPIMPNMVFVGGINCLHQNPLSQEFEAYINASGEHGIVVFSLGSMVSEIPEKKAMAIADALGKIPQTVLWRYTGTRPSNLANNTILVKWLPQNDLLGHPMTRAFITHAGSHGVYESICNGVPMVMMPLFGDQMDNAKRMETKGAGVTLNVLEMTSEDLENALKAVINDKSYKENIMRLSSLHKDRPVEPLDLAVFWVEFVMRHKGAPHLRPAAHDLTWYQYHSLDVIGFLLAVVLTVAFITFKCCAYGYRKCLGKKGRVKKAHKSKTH

[3] = system: HeLa1A1 cells; experiment: BDMC-O-glucuronide excretion experiments in HeLa1A1 cells; assay type: cell-based, human; details: for Increase of intracellular levels of BDMC-O-glucuronide / Decrease of BDMC-O-glucuronide excretion: inhibitor 5 and 20 μM, 5 μM BDMC, versus control; for Increase of intracellular levels of BDMC-O-glucuronide: cells collected at 2 h

| SMILES | Effect on glucuronidation of BDMC by UGT1A1 enzyme [1] | Effect on glucuronidation of BDMC by HeLa1A1 cell lysate ([2]; inhibitor 5 and 20 μM) | Effect of UGT1A1 inhibitors on rates of BDMC-O-glucuronidation [1] | Increase of intracellular levels of BDMC-O-glucuronide [3] | Decrease of BDMC-O-glucuronide excretion [3] | also measured |
| --- | --- | --- | --- | --- | --- | --- |
| CCCCC/C=C\C\C=C/C=C/C=C/[C@@H](SC[C@H](NC(=O)CC[C@H](N)C(=O)O)C(=O)NCC(=O)O)[C@@H](O)CCCC(=O)O [LTC4, leukotriene C4] |  |  |  |  |  | Effect on glucuronidation of BDMC by UGT1A1 ([1]; LTC4 0.05 and 0.2 μM): no influences; Effect on glucuronidation of BDMC by HeLa1A1 cell lysate ([2]; LTC4 0.05 and 0.2 μM): no influences; Effect on excretion of BDMC-O-glucuronide ([3]; LTC4 0.05 and 0.2 μM): did not show any effects; Effect on formation of BDMC-O-glucuronide ([3]; LTC4 0.05 and 0.2 μM): did not show any effects |
| CC1(C)[C@@H](O)CC[C@]2(C)[C@H]3C(=O)C=C4[C@@H]5C[C@@](C)(C(=O)O)CC[C@]5(C)CC[C@@]4(C)[C@]3(C)CC[C@@H]12 [glycyrrhetinic acid] |  |  | altered |  |  |  |
| Cc1cn(-c2cc(NC(=O)c3ccc(C)c(Nc4nccc(-c5cccnc5)n4)c3)cc(C(F)(F)F)c2)cn1 [nilotinib] |  |  | altered |  |  |  |

Continued, in another order:

| Effect on glucuronidation of BDMC by UGT1A1 enzyme [1] | Effect on glucuronidation of BDMC by HeLa1A1 cell lysate ([2]; inhibitor 5 and 20 μM) | Effect of UGT1A1 inhibitors on rates of BDMC-O-glucuronidation [1] | SMILES | Increase of intracellular levels of BDMC-O-glucuronide [3] | Decrease of BDMC-O-glucuronide excretion [3] | also measured |
| --- | --- | --- | --- | --- | --- | --- |
| inhibit | inhibit |  | OCCN(CCO)c1nc(N2CCCCC2)c2nc(N(CCO)CCO)nc(N3CCCCC3)c2n1 [DIPY, dipyridamole] | 20.5–25.4% | 8.4–36.5% |  |
| inhibit | inhibit |  | CN(C)C(=O)CCSC(SCCC(=O)O)c1cccc(/C=C/c2ccc3ccc(Cl)cc3n2)c1 (stereo not drawn) [MK-571] | 27.1–32.6% | 6.2~61.6% | Effect on efflux clearance of BDMC-O-glucuronide ([3]; HeLa1A1 cells, ER/Ci): reduction |
